Where two headings read alike, the source gives them in different places.
How the values were obtained:
[1] = Oxidation-reduction potential by Square Wave Voltammetry (SWVA); format: physicochemical; conditions: for Wave Height, I, mA / E, mV vs. Ag/AgCl: SWVA; for E, mV vs. Ag/AgCl: absence of atmospheric oxygen
Experimental: The compatibility of H2O2 and the protein/surfactant system was assessed using two approaches. […] Second, H2O2 concentration was determined over various time periods, up to one year, in the mixtures of hydrogen peroxide and protein/surfactant mixture, by volumetric titration with standardized permanganate solution. ORP measurements were conducted using Square Wave Voltammetry (SWVA) in a glove box, in the absence of atmospheric oxygen. Solutions 27% and 15% H2O2 with and without addition of 5% protein/surfactant were taken for these experiments.

[2] = system: E. Coli; conditions: for E. Coli Sample (CFU/mL): 5% Horse serum
Experimental: (§1) The following tests were run with PS-2 at a 4% concentration (0.72% total surfactant), H2O2 at 3% and phosphoric acid at <0.1% to pH 2.9, Versene (EDTA) at 0.1%. Test methodology was Suspension Based, Quantitative Time-Kill at 22° C., but with 5% Horse serum added to show the effects of organic contaminant on antimicrobial activity. A control of 3% H2O2 was run in this example.

[3] = system: S. aureus; conditions: for S. aureus Sample (CFU/mL): 5% Horse serum
Experimental: as §1

[4] = exposure time of up to 10 minutes, organic contamination

With `OO` [Composition H2O2, hydrogen peroxide] the “Potential (apex of current wave)” value ([1]; NHE) was “about 1.8 V” and the “Potential (apex of current wave)” value ([1]; against saturated silver/silver chloride electrode) was “about 1.6 V”.
With `OO` [Control, 3% H2O2, hydrogen peroxide] the “E. Coli Sample (CFU/mL)” value ([2]; 1 min) was 1.71E+07 CFU/mL, the “E. Coli Sample (CFU/mL)” value ([2]; 5 min) was 6.80E+06 CFU/mL and the “E. Coli Sample (CFU/mL)” value ([2]; 10 min) was 1.36E+06 CFU/mL. The “E. Coli Sample (CFU/mL)” value ([2]; "Time Zero") was 1.99E+07 CFU/mL, the “log reduction, gram negative pathogen (E. Coli)” value [2, 4] was 1 log and the “S. aureus Sample (CFU/mL)” value ([3]; 1 min) was 1.20E+07 CFU/mL. The “S. aureus Sample (CFU/mL)” value ([3]; 5 min) was 8.80E+06 CFU/mL, the “S. aureus Sample (CFU/mL)” value ([3]; 10 min) was 3.86E+06 CFU/mL and the “S. aureus Sample (CFU/mL)” value ([3]; "Time Zero") was 1.04E+07 CFU/mL. For the same compound, the “log reduction, gram positive pathogen (S. aureus)” value [3, 4] was 1 log.
With `OO` [H2O2, 15%, hydrogen peroxide] the “Wave Height, I, mA” value [1] was 85 mA and the “E, mV vs. Ag/AgCl” value [1] was 1,550 mV.
With `OO` [H2O2, 27%, hydrogen peroxide] the “Wave Height, I, mA” value [1] was 92 mA, the “E, mV vs. Ag/AgCl” value [1] was 1,600 mV and the “Wave Height, I, mA” value ([1]; listed as pure H2O2) was “about 92 mA”.

From patent publication US20140248373A1, “ENHANCED PERFORMANCE HYDROGEN PEROXIDE FORMULATIONS COMPRISING PROTEINS AND SURFACTANTS” (Advanced BioCatalytics Corporation, priority 2008, published 2014)
